Assay [1] has as its system cynomologous monkeys. In words: Monkey HDL and LDL after oral peptide tested for monocyte chemotactic activity in human artery wall cell cultures. Type of assay: in vivo. To be noted: five milligrams by stomach tube, 6 hours. Here is the method: Five milligrams of the peptide LAEYHAK (SEQ ID NO: 8) synthesized from all D-amino acids was administered to each of four cynomologous monkeys in 2.0 mL of water by stomach tube and followed with 2.0 mL of water as a wash. Six hours later the monkeys were bled and their plasma fractionated by fast protein liquid chromatography (FPLC) and tested in human artery wall cell cultures.

The subject of assay [2] is Human aortic endothelial cells. In words: Prevention of LDL-induced monocyte chemotactic activity in vitro, co-incubation. Type of assay: cell-based. To be noted: co-incubation with control human LDL 200 μg protein/ml, overnight; FIG. 1. Here is the method: FIG. 1 illustrates a comparison of the effect of D-4F (Circulation 2002; 105:290-292) with the effect of an apoJ peptide made from D amino acids (D-J336, Ac-LLEQLNEQFNWVSRLANLTQGE-NH2, SEQ ID NO:13) on the prevention of LDL-induced monocyte chemotactic activity in vitro in a co-incubation. Human aortic endothelial cells were incubated with medium alone (no addition), with control human LDL (200 μg protein/ml) or control human LDL+control human HDL (350 μg HDL protein/ml). D-J336 or D-4F was added to other wells in a concentration range as indicated plus control human LDL (200 μg protein/ml). Following overnight incubation, the supernatants were assayed for monocyte chemotactic activity.

The test system of assay [3] is Human aortic endothelial cells. In words: Prevention of LDL-induced monocyte chemotactic activity by pre-treatment (pre-incubation) of artery wall cells. It counts as cell-based. To be noted: 6 hrs pre-incubation, D-J336 4, 2, 1 μg/ml vs D-4F 100-12.5 μg/ml, FIG. 2. Here is the method: FIG. 2 illustrates a comparison of the effect of D-4F with the effect of D-J336 on the prevention of LDL induced monocyte chemotactic activity in a pre-incubation. Human aortic endothelial cells were pre-incubated with D-J336 or D-4F at 4, 2, and 1 μg/ml for DJ336 or 100, 50, 25, and 12.5 μg/ml for D-4F for 6 hrs. The cultures were then washed and were incubated with medium alone (no addition), or with control human LDL (200 μg protein/ml), or with control human LDL+control human HDL (350 μg HDL protein/ml) as assay controls. The wells that were pre-treated with peptides received the control human LDL at 200 μg protein/ml. Following overnight incubation, the supernatants were assayed for monocyte chemotactic activity.

Assay [4] deals with LDL receptor null mice. In words: HDL protective capacity in LDL receptor null mice given peptide in drinking water. It counts as in vivo. To be noted: 0.25 or 0.5 mg per ml drinking water, 24 or 48 hrs, mouse HDL at 100 μg cholesterol/ml. How it is done:
D-4F designated as F, or the apoJ peptide made from D amino acids (D-J336, designated as J) was added to the drinking water of LDL receptor null mice (4 per group) at 0.25 or 0.5 mg per ml of drinking water. After 24- or 48-hrs blood was collected from the mice and their HDL was isolated and tested for its ability to protect against LDL-induced monocyte chemotactic activity. Assay controls included culture wells that received no lipoproteins (no addition), or control human LDL alone (designated as LDL, 200 μg cholesterol/ml), or control LDL+control human HDL (designated as +HDL, 350 μg HDL cholesterol). For testing the mouse HDL, the control LDL was added together with mouse HDL (+F HDL or +J HDL) to artery wall cell cultures. The mouse HDL was added at 100 μg cholesterol/ml respectively.

The subject of assay [5] is ApoE null mice. In words: Protection against LDL-induced monocyte chemotactic activity by HDL from apo E null mice given oral peptides. Type of assay: in vivo. To be noted: peptide in drinking water (D-4F 5-50, D-J336 20-50 μg per ml), 24 hrs, murine HDL at 100 μg cholesterol/ml. Here is the method:
FIG. 4 illustrates the effect of oral apoA-1 peptide mimetic and apoJ peptide on HDL protective capacity. ApoE null mice (4 per group) were provided with D-4F (designated as F) at 50, 30, 20, 10, 5 μg per ml of drinking water or apoJ peptide (designated as J) at 50, 30 or 20 μg per ml of drinking water. After 24 hrs blood was collected, plasma fractionated by FPLC and fractions containing LDL (designated as mLDL for murine LDL) and fractions containing HDL (designated as mHDL) were separately pooled and HDL protective capacity against LDL oxidation as determined by LDL-induced monocyte chemotactic activity was determined. For the assay controls the culture wells received no lipoproteins (no additions), mLDL alone (at 200 μg cholesterol/ml), or mLDL+standard normal human HDL (designated as Cont. h HDL, at 350 μg HDL cholesterol/ml).
For testing the murine HDL, mLDL together with murine HDL (+F mHDL or +J mHDL) were added to artery wall cell cultures. […] The murine HDL was used at 100 μg cholesterol/ml.

In assay [6] the test system is ApoE null mice. In words: Ability of LDL from apoE null mice given oral peptides to induce monocyte chemotactic activity (LDL susceptibility to oxidation). It counts as in vivo. To be noted: peptide in drinking water, 24 hrs. Here is the method:
FIG. 5 illustrates the effect of oral apo A-1 peptide mimetic and apoJ peptide on LDL susceptibility to oxidation. ApoE null mice (4 per group) were provided, in their drinking water, with D-4F (designated as F) at 50, 30, 20, 10, 5 μg per ml of drinking water or the apoJ peptide (D-J336 made from D amino acids and designated as J) at 50, 30 or 20 μg per ml of drinking water. After 24 hrs blood was collected from the mice shown in FIG. 4, plasma fractionated by FPLC and fractions containing LDL (designated as mLDL for murine LDL) were pooled and LDL susceptibility to oxidation as determined by induction of monocyte chemotactic activity was determined. For the assay controls the culture wells received no lipoproteins (no additions), mLDL alone (at 200 μg cholesterol/ml), or mLDL+standard normal human HDL (designated as Cont. h HDL, 350 μg HDL cholesterol).
Murine LDL, mLDL, from mice that received the D-4F (F mLDL) or those that received the apoJ peptide (J mLDL) were added to artery wall cell cultures.

In assay [7] the test system is ApoE null mice. In words: Protection against PAPC oxidation by HPODE by HDL from apo E null mice given oral peptides. Type of assay: in vivo. To be noted: peptide in drinking water, 24 hrs, murine HDL at 100 μg cholesterol/ml. Here is the method: FIG. 6 illustrates the effect of oral apoA-1 peptide mimetic and apoJ peptide on HDL protective capacity. ApoE null mice (4 per group) were provided with D-4F (designated as F) at 50, 30, 20, 10, 5 μg per ml of drinking water or apoJ peptide (D-J336 made from D amino acids and designated as J) at 50, 30 or 20 μg per ml of drinking water. After 24 hrs blood was collected, plasma fractionated by FPLC and fractions containing HDL (designated as mHDL) were pooled and HDL protective capacity against PAPC oxidation as determined by the induction of monocyte chemotactic activity was determined. For the assay controls the culture wells received no lipoproteins (no additions), the phospholipid PAPC at 20 μg/ml+HPODE, at 1.0 μg/ml, or PAPC+BPODE plus standard normal human HDL (at 350 μg HDL cholesterol/ml and designated as +Cont. h HDL).
For testing the murine HDL, PAPC+HPODE together with murine HDL (+F mHDL or +J mHDL) were added to artery wall cell cultures. […] The murine HDL was used at 100 μg cholesterol/ml.

In assay [8] the test system is ApoE null mice. In words: Plasma paraoxonase (PON1) activity in apoE null mice given oral peptides. Type of assay: in vivo. To be noted: apoE null mice, 50, 10 or 5 μg per ml drinking water, 24 hrs, FIG. 7. Here is the method: ApoE null mice (4 per group) were provided with D-4F designated as F at 50, 10, 5 or 0 μg per ml of drinking water or apoJ peptide (D-J336 made from D amino acids and designated as J) at 50, 10 or 5 μg per ml of drinking water. After 24 hrs blood was collected and plasma was assayed for PON1 activity.

Assay [9] concerns ApoE null mice. In words: HDL paraoxonase activity in apoE null mice. It counts as in vivo. To be noted: FIG. 16. Here is the method:
Female apoE null mice 4 months of age (n=4 per group) were administered by intraperitoneal injection either scrambled D-4F (a non-active control peptide) or D-4F at 10 μg/mouse or the peptide Ac-KWIYHLTEGSTDLRTEG-NH2 (SEQ ID NO:643) synthesized from L-amino acids (L-ApoM) at 50 μg/mouse. The mice were bled 2 or 6 hours later and their HDL isolated by FPLC and the paraoxonase activity in the HDL determined and plotted on the X-axis. Other 4-month-old female apoE null mice (n=4 per group) were administered by gastric gavage the peptide Ac-KWIYHLTEGSTDLRTEG-NH2 (SEQ ID NO:643) synthesized from L-amino acids (L-ApoM) at 100 μg/mouse (L-ApoM by gavage). The mice were bled 6 hours later and their HDL isolated by FPLC and the paraoxonase activity in the HDL determined and plotted on the X-axis.

As to “LAEYHAK (Synthetic peptide. Can be protected or unprotected as shown in specification.)”, the “monocyte chemotactic activity with hLDL plus monkey HDL taken after peptide versus time zero” value in assay [1] (monkey HDL 50 μg/mL HDL-cholesterol, FIG. 17 panel B) is on record as “significantly reduced monocyte chemotactic activity”. Further, the “monocyte chemotactic activity induced by monkey LDL taken after peptide versus time zero” value in assay [1] (monkey LDL 100 μg/mL LDL-cholesterol, FIG. 17 panel C) is given as “significantly less monocyte chemotactic activity”.
Consider Ac-LLEQLNEQFNWVSRLANLTQGE-NH2 [D-J336], for which the “in vitro concentration that prevents LDL-induced monocyte chemotactic activity by human artery wall cells, times less than the concentration required for D-4F” value in [2] lay within 10 to 25 times. The “potency in preventing LDL oxidation by artery wall cells in vitro, times more potent than D-4F” value in assay [3] is recorded as 10 to 25 times; in assay [3] (listed as ApoJ variant peptide) it was 10-25 times. The “HDL protective capacity against LDL-induced monocyte chemotactic activity” value in [4] (FIG. 3) was “as active as 350 μg/ml of control human HDL”; in assay [4] (FIG. 3, listed as DJ335) it was “essentially as effective as D4F”. For the same substance, the “HDL protective capacity against LDL oxidation (LDL-induced monocyte chemotactic activity)” value in [5] (FIG. 4) is recorded as “as active as 350 μg/ml of normal human HDL”; in [5] (FIG. 4, listed as D-J peptide), “as potent as D-4F”; in assay [5] (FIG. 4, listed as DJ336) it was “as potent as D4F”. Also, the “rendering LDL resistant to oxidation by human artery wall cells (induction of monocyte chemotactic activity)” value in [6] (FIG. 5) is listed as “slightly more potent than D-4F”; in assay [6] (FIG. 5, listed as DJ336), “slightly more potent than D4F”. In addition, the “causing HDL to inhibit oxidation of PAPC by HPODE (generation of monocyte chemotactic activity)” value is reported as “as potent as D-4F” in assay [7] (FIG. 6) and “as potent as D4F” in assay [7] (FIG. 6, listed as DJ336). Besides, the “increasing plasma paraoxonase activity” value in assay [8] is “at least as potent as D-4F”; in assay [8] (listed as DJ336), “at least as potent as D4F”.
Ac-KWIYHLTEGSTDLRTEG-NH2 [L-ApoM]: the HDL paraoxonase activity entry in assay [9] (gastric gavage 100 μg/mouse, bled 6 hours later) is “increased paraoxonase activity”; in assay [9] (intraperitoneal injection 50 μg/mouse, bled 2 or 6 hours later), “increased paraoxonase activity”.

The record behind these values is patent US20060205669A1, “G-type peptides and other agents to ameliorate atherosclerosis and other pathologies” (The Regents of the University of California, priority 2004, published 2006).
